# Source: patent US6737383B1, “Herbicidal oxadiazolidines” (priority 1999, dated 2004)
# Key:
# [1] = tested on: cocklebur; assay: Test B pre/postemergence cocklebur; assay type: in vivo, Xanthium strumarium
# Outline: (§1)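 Herbicidal effect was estimated by eye on a ten-point control scale after plants spent twelve to sixteen days in a greenhouse following soil or foliar treatment. Foliar sprays targeted plants at one to four leaves; all doses were formulated in a non-phytotoxic solvent with surfactant.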
# [2] = tested on: corn; assay: Test B pre/postemergence corn; assay type: in vivo, Zea mays
# Outline: as §1
# [3] = tested on: purple nutsedge; assay: Test B pre/postemergence purple nutsedge; assay type: in vivo, Cyperus rotundus; conditions: Postemergence
# Outline: as §1
# [4] = tested on: wild oat; assay: Test B pre/postemergence wild oat; assay type: in vivo, Avena fatua
# Outline: as §1
# [5] = tested on: rice; assay: Test B flood test rice; assay type: in vivo, Oryza sativa
# Outline: (§2)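 Plants were grown to the 2-leaf stage before treatment with test chemical, then held in a greenhouse for twelve to sixteen days. Injury was visually rated against untreated controls on a 0–10 scale, where 0 is no effect and 10 is complete control.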
# [6] = tested on: soybean; assay: Test B pre/postemergence soybean; assay type: in vivo, Glycine max
# Outline: as §1
# [7] = tested on: morningglory; assay: Test B pre/postemergence morningglory; assay type: in vivo, Ipomoea hederacea
# Outline: as §1
# [8] = tested on: smallflower flatsedge; assay: Test B flood test smallflower flatsedge; assay type: in vivo, Cyperus difformis
# Outline: as §2
# [9] = tested on: duck salad; assay: Test B flood test duck salad; assay type: in vivo, Heteranthera limosa
# Outline: as §2
# [10] = tested on: giant foxtail; assay: Test B pre/postemergence giant foxtail; assay type: in vivo, Setaria faberii
# Outline: as §1
# [11] = tested on: surinam grass; assay: Test B pre/postemergence surinam grass; assay type: in vivo, Brachiaria decumbens
# Outline: as §1
# [12] = tested on: rape; assay: Test B pre/postemergence rape; assay type: in vivo, Brassica napus
# Outline: as §1
# [13] = tested on: bamyardgrass; assay: Test B flood test barnyardgrass; assay type: in vivo, Echinochloa crus-galli
# Outline: as §2
# [14] = tested on: sugar beet; assay: Test B pre/postemergence sugar beet; assay type: in vivo, Beta vulgaris
# Outline: as §1
# [15] = tested on: pigweed; assay: Test B pre/postemergence pigweed; assay type: in vivo, Amaranthus retroflexus
# Outline: as §1
# [16] = tested on: crabgrass; assay: Test B pre/postemergence crabgrass; assay type: in vivo, Digitaria sanguinalis
# Outline: as §1
# [17] = Postemergence, Rate 250 g/ha, scale 0 to 10, 0 no effect, 10 complete control
# [18] = Postemergence, Rate 1000 g/ha, scale 0 to 10 (0 no effect, 10 complete control)
# [19] = Preemergence, Rate 125 g/ha, scale 0 to 10 (0 no effect, 10 complete control)
# [20] = Preemergence, Rate 250 g/ha, scale of 0 to 10 where 0 is no effect and 10 is complete control
# [21] = Preemergence, Rate 500 g/ha, scale 0 (no effect) to 10 (complete control)
# [22] = Rate 125 g/ha, Postemergence, scale 0 to 10, 0 no effect, 10 complete control
# [23] = Rate 500 g/ha, Postemergence, 0 to 10 scale (0 no effect, 10 complete control)
# [24] = Rate 1000 g/ha, Preemergence, scale 0 to 10 (0 no effect, 10 complete control)
# [25] = Rate 125 g/ha, Postemergence section (flood test species), scale 0 to 10, 0 no effect, 10 complete control
# [26] = Rate 500 g/ha, Postemergence section of Table B, 0 to 10 scale (0 no effect, 10 complete control)
# [27] = flood test, listed under Postemergence, Rate 250 g/ha, scale 0 to 10, 0 no effect, 10 complete control
smiles,measurement,setting,value
CCN(CC)C(=O)n1oc(=O)n(-c2ccc(F)cc2)c1=O [Compound 3],Cocklebur plant response rating,[1]; [17],0
same,Cocklebur plant response rating,[1]; [18],2
same,"Plant response rating, Cocklebur",[1]; [19],0
same,"Plant response rating, Cocklebur",[1]; [20],0
same,Cocklebur plant response rating,[1]; [21],0
same,Cocklebur plant response rating,[1]; [22],0
same,Cocklebur plant response rating,[1]; [23],0
same,"Plant response rating, Cocklebur",[1]; [24],0
same,Corn plant response rating,[2]; [17],0
same,Corn plant response rating,[2]; [18],0
same,"Plant response rating, Corn",[2]; [19],0
same,"Plant response rating, Corn",[2]; [20],0
same,Corn plant response rating,[2]; [21],0
same,Corn plant response rating,[2]; [22],0
same,Corn plant response rating,[2]; [23],0
same,"Plant response rating, Corn",[2]; [24],0
same,Nutsedge plant response rating,"[3]; Rate 250 g/ha, scale 0 to 10, 0 no effect, 10 complete control",0
same,Nutsedge plant response rating,"[3]; Rate 1000 g/ha, scale 0 to 10 (0 no effect, 10 complete control)",0
same,Nutsedge plant response rating,"[3]; Rate 125 g/ha, scale 0 to 10, 0 no effect, 10 complete control",0
same,Nutsedge plant response rating,"[3]; Rate 500 g/ha, 0 to 10 scale (0 no effect, 10 complete control)",0
same,Wild oats plant response rating,[4]; [17],0
same,Wild oats plant response rating,[4]; [18],0
same,"Plant response rating, Wild oats",[4]; [19],0
same,"Plant response rating, Wild oats",[4]; [20],0
same,Wild oats plant response rating,[4]; [21],0
same,Wild oats plant response rating,[4]; [22],0
same,"Plant response rating, Wild oats",[4]; [24],0
same,Rice plant response rating,[5]; [18],0
same,Rice plant response rating,[5]; [25],0
same,Rice plant response rating,[5]; [26],0
same,Rice plant response rating,[5]; [27],0
same,Soybean plant response rating,[6]; [17],1
same,Soybean plant response rating,[6]; [18],2
same,"Plant response rating, Soybean",[6]; [19],0
same,"Plant response rating, Soybean",[6]; [20],0
same,Soybean plant response rating,[6]; [21],0
same,Soybean plant response rating,[6]; [22],0
same,"Plant response rating, Soybean",[6]; [24],0
same,Morningglory plant response rating,[7]; [17],0
same,Morningglory plant response rating,[7]; [18],0
same,"Plant response rating, Morningglory",[7]; [19],0
same,"Plant response rating, Morningglory",[7]; [20],0
same,Morningglory plant response rating,[7]; [21],0
same,Morningglory plant response rating,[7]; [22],0
same,Morningglory plant response rating,[7]; [23],0
same,"Plant response rating, Morningglory",[7]; [24],0
same,S. Flatsedge plant response rating,[8]; [18],0
same,S. Flatsedge plant response rating,[8]; [25],0
same,S. Flatsedge plant response rating,[8]; [27],0
same,Ducksalad plant response rating,[9]; [18],0
same,Ducksalad plant response rating,[9]; [25],0
same,Ducksalad plant response rating,[9]; [26],0
same,Ducksalad plant response rating,[9]; [27],0
same,Giant foxtail plant response rating,[10]; [17],3
same,Giant foxtail plant response rating,[10]; [18],8
same,"Plant response rating, Giant foxtail",[10]; [19],0
same,"Plant response rating, Giant foxtail",[10]; [20],1
same,Giant foxtail plant response rating,[10]; [21],8
same,Giant foxtail plant response rating,[10]; [22],0
same,Giant foxtail plant response rating,[10]; [23],7
same,"Plant response rating, Giant foxtail",[10]; [24],10
same,B. signalgrass plant response rating,[11]; [17],0
same,B. signalgrass plant response rating,[11]; [18],0
same,"Plant response rating, B. signalgrass",[11]; [19],0
same,"Plant response rating, B. signalgrass",[11]; [20],0
same,B. signalgrass plant response rating,[11]; [21],0
same,B. signalgrass plant response rating,[11]; [22],0
same,B. signalgrass plant response rating,[11]; [23],0
same,"Plant response rating, B. signalgrass",[11]; [24],0
same,Rape plant response rating,[12]; [17],0
same,Rape plant response rating,[12]; [18],0
same,"Plant response rating, Rape",[12]; [19],0
same,"Plant response rating, Rape",[12]; [20],0
same,Rape plant response rating,[12]; [21],0
same,Rape plant response rating,[12]; [22],0
same,Rape plant response rating,[12]; [23],0
same,"Plant response rating, Rape",[12]; [24],0
same,Barnyardgrass plant response rating,[13]; [18],0
same,Barnyardgrass plant response rating,[13]; [25],0
same,Barnyardgrass plant response rating,[13]; [26],0
same,Barnyardgrass plant response rating,[13]; [27],0
same,Sugarbeets plant response rating,[14]; [17],0
same,Sugarbeets plant response rating,[14]; [18],0
same,"Plant response rating, Sugarbeets",[14]; [19],0
same,"Plant response rating, Sugarbeets",[14]; [20],0
same,Sugarbeets plant response rating,[14]; [21],0
same,Sugarbeets plant response rating,[14]; [22],0
same,"Plant response rating, Sugarbeets",[14]; [24],0
same,Redroot pigweed plant response rating,[15]; [17],0
same,Redroot pigweed plant response rating,[15]; [18],0
same,"Plant response rating, Redroot pigweed",[15]; [19],0
same,"Plant response rating, Redroot pigweed",[15]; [20],0
same,Redroot pigweed plant response rating,[15]; [21],0
same,Redroot pigweed plant response rating,[15]; [22],0
same,Redroot pigweed plant response rating,[15]; [23],0
same,"Plant response rating, Redroot pigweed",[15]; [24],0
same,Crabgrass plant response rating,[16]; [17],0
same,Crabgrass plant response rating,[16]; [18],7
same,"Plant response rating, Crabgrass",[16]; [19],0
same,"Plant response rating, Crabgrass",[16]; [20],0
same,Crabgrass plant response rating,[16]; [21],0
same,Crabgrass plant response rating,[16]; [22],0
same,Crabgrass plant response rating,[16]; [23],6
same,"Plant response rating, Crabgrass",[16]; [24],2
